Like-named read-outs stand apart in the source and are kept apart here.

Holding throughout (assay): biochemical
Holding throughout (design): Eurofins KinaseProfiler full panel at Km ATP, residual kinase activity (%) relative to DMSO

For one assay, the target named is TTBK2(h) (Homo sapiens, UniProt Q6IQ55). Here is the method: (§1) Eurofins performed a “Full KP Panel [Km ATP], KinaseProfile” which contains 429 radiometric kinase activity assays. The remaining kinase activity (%) was determined after treatment with the compounds at a concentration of 10 µM (Cfr. supporting information). Since we could not confirm the interaction between Spautin-1 analogues and USP13, a kinase screening was performed using a set of four compounds (Spautin-1 and three analogues) to discover off-targets and identify kinases that are potentially responsible for the reduction in cell viability observed in our screen (Table 2). The KINOMEscan from Eurofins was performed (see Table S1). This screen consists of a competitive binding assay in which the DNA-tagged kinase is incubated with one of the compounds in the presence of immobilized active site binding ligands. Binding of the compounds to the kinase hampers the binding of the kinase to the ligands and this inhibition was quantified by qPCR. The residual kinase activity, which represents the percentage of kinase attached to the immobilized ligands, was determined for 428 kinases at a standard screening concentration of 10 µM of the compounds dissolved in DMSO [61].

A further assay addresses Fes(h) (Homo sapiens, UniProt P07332). Here is the method:
as §1

For the next assay, the target named is T1, PDGFRα(D842V)(h) (Homo sapiens, UniProt P16234, D842V).
T1 construct: gene PDGFRA
Here is the method: as §1

The next assay concerns the target LTK(h) (Homo sapiens, UniProt P29376). On the procedure: as §1
The target in the next assay is Syk(h) (Homo sapiens, UniProt P43405). Here is the method:
as §1

In a further assay the target is T2, Rsk1(h) (Homo sapiens, UniProt Q15418).
T2 construct: gene RPS6KA1
On the procedure:
as §1

Another assay concerns the target T3, ACK1(h) (Homo sapiens, UniProt Q07912).
T3 construct: gene TNK2
Here is the method:
as §1

The target in the next assay is CLK3(h) (Homo sapiens, UniProt P49761). Here is the method: as §1
The next assay deals with mTOR(h) (Homo sapiens, UniProt P42345). Here is the method: as §1
The next assay addresses CDK4/cyclinD3(h) (Homo sapiens, UniProt P11802). On the procedure: as §1
For another assay, the target named is T4, Abl(Y253F)(h) (Homo sapiens, UniProt P00519, Y253F).
T4 construct: gene ABL1
On the procedure: as §1

Assay [1] has as its target T5, PI3 Kinase (p110a(H1047R)/p85a)(h) (Homo sapiens, UniProt P42336, H1047R).
T5 construct: gene PIK3CA
Here is the method:
as §1

The target in another assay is MAP4K5(h) (Homo sapiens, UniProt Q9Y4K4). On the procedure: as §1
Another assay addresses T6, cKit(D816V)(h) (Homo sapiens, UniProt P10721, D816V).
T6 construct: gene KIT
On the procedure: as §1

The target of a further assay is T7, CK1γ2(h) (Homo sapiens, UniProt P78368).
T7 construct: gene CSNK1G2
On the procedure: as §1

Setting [2] is: read-out: Residual activity (%) Spautin-1 5aa.
[3] abbreviates: read-out: Residual activity (%) 5as.
The mark [4] stands for this setting: read-out: Residual activity (%) 5at.
Setting [5] is: read-out: Residual activity (%) 5ay.

Chain of Fes(h) (P07332 whole entry): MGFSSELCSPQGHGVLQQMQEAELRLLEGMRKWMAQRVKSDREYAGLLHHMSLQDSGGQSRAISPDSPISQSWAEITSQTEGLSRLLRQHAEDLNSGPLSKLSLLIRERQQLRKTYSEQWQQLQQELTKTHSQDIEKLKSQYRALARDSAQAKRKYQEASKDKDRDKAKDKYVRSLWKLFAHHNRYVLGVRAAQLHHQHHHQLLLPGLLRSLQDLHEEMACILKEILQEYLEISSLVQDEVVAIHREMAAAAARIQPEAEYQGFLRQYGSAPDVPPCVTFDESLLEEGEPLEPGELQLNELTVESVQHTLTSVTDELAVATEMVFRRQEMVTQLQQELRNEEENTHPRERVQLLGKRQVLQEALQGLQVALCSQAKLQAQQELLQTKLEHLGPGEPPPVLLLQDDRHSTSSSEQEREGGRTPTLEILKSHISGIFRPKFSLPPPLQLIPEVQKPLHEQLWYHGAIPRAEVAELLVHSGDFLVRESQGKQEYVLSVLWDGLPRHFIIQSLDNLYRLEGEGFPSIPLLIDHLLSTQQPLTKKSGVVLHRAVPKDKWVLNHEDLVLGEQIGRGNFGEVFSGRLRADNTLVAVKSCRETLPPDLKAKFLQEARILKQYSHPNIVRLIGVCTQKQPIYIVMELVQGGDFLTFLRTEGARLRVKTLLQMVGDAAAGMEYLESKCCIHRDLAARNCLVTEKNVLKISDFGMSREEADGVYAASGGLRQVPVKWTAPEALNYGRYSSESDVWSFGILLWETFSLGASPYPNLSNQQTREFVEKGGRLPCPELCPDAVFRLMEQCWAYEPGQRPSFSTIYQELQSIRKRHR
T6 sequence (P10721 whole entry D816V): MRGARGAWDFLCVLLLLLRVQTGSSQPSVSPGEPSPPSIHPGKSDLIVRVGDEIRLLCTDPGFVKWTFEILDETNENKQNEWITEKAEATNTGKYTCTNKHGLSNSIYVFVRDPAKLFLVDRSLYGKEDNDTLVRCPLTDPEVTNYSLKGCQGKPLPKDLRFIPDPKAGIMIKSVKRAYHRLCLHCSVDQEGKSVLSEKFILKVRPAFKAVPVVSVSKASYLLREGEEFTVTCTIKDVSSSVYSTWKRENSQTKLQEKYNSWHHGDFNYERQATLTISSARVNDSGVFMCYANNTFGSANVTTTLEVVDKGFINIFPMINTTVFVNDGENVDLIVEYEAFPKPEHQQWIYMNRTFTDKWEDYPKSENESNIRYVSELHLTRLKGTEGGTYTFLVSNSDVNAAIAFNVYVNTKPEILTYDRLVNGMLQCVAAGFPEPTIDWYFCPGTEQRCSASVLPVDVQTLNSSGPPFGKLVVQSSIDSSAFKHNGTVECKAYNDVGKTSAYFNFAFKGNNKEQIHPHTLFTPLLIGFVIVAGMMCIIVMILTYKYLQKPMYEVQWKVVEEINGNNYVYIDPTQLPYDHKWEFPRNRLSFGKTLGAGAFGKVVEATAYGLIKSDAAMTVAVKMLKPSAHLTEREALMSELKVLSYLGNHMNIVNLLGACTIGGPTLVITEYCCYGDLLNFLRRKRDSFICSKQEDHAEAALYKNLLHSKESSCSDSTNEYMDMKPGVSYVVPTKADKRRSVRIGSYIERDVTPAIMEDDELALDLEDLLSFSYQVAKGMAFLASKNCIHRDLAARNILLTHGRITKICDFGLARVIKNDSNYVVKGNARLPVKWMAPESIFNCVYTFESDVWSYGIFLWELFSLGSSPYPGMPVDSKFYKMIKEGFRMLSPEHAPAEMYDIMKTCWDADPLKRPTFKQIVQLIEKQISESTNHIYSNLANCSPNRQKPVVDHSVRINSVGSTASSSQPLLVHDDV
Chain of TTBK2(h) (Q6IQ55 whole entry): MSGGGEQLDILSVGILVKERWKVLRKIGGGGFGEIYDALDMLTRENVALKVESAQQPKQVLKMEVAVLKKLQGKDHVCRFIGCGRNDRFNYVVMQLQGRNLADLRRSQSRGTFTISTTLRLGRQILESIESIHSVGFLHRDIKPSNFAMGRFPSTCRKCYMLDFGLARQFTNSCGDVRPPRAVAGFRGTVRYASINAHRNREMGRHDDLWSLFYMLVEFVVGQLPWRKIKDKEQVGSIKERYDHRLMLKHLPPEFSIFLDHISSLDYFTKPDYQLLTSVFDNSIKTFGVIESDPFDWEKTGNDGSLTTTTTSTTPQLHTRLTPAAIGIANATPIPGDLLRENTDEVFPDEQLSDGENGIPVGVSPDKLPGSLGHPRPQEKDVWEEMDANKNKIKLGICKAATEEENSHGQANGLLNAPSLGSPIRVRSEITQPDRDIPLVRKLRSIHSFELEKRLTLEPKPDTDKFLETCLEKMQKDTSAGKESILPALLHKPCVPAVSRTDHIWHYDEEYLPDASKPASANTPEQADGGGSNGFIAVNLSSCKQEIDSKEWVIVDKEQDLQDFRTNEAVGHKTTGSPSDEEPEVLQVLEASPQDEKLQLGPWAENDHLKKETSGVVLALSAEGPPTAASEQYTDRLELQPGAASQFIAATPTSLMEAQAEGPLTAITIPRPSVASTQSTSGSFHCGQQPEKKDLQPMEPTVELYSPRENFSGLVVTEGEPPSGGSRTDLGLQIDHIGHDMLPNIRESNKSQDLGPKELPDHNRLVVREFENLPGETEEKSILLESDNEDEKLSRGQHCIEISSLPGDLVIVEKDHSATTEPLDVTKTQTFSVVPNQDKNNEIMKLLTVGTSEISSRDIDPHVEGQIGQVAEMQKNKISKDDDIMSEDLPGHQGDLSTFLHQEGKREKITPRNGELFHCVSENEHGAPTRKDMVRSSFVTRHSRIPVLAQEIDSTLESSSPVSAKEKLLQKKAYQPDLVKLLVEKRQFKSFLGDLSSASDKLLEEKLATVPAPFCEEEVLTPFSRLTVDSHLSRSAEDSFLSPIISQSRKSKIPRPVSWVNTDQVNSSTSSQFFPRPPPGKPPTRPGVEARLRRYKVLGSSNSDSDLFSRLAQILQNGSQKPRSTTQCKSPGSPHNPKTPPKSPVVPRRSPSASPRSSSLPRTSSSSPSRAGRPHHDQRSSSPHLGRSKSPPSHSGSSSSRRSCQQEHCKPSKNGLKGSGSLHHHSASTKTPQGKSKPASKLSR
Chain of CLK3(h) (P49761 whole entry): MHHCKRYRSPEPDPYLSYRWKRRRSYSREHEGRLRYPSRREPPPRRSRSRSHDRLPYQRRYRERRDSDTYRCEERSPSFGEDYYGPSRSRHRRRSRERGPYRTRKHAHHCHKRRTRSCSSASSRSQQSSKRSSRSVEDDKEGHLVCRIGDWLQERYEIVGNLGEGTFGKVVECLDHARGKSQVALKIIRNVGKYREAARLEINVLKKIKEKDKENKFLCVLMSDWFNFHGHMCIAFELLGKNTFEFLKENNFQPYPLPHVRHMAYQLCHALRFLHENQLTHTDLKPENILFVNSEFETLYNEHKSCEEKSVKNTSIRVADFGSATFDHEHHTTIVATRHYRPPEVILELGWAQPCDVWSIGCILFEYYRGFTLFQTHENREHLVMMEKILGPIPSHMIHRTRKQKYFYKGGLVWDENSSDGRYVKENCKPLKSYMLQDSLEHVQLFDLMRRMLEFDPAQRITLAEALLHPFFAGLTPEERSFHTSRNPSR
T1 sequence (P16234 whole entry D842V): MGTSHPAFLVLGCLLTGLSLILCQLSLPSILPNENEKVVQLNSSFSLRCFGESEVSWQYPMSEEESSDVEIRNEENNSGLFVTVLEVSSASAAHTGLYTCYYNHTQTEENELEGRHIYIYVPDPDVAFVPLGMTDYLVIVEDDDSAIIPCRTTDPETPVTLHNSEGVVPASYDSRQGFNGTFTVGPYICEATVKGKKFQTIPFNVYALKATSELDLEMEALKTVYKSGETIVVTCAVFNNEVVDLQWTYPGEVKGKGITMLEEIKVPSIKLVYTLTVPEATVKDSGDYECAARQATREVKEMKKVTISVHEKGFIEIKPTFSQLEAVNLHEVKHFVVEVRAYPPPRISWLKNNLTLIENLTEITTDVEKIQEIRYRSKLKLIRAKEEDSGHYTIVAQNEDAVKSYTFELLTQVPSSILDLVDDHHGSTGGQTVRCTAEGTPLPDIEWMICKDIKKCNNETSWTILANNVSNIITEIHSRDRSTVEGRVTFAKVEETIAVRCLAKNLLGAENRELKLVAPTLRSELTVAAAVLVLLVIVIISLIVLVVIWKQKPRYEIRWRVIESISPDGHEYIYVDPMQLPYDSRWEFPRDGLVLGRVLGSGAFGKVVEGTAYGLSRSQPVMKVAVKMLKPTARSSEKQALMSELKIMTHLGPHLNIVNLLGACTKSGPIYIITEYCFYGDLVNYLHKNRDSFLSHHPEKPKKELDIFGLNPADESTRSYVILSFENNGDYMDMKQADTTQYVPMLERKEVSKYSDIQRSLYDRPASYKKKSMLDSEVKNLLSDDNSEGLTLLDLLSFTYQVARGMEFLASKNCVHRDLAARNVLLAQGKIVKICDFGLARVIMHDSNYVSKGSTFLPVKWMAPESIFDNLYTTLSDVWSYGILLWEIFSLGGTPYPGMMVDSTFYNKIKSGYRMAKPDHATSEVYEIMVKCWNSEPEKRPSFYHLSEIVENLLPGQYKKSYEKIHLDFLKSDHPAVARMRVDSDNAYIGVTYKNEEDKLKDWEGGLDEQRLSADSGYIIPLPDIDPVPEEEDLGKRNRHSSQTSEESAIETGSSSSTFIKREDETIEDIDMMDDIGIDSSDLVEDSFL
T7 sequence (P78368 whole entry): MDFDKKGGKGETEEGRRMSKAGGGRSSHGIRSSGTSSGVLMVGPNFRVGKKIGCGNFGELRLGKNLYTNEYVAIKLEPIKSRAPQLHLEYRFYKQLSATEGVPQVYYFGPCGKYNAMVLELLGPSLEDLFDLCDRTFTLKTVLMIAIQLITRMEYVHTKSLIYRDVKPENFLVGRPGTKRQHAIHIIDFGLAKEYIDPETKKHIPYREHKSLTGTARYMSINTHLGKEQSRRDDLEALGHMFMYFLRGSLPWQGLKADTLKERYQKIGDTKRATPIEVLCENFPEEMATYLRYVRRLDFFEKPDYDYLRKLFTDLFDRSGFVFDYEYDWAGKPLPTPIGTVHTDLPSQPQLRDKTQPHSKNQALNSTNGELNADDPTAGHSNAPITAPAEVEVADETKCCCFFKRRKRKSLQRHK

As for `Fc1ccc(CNc2ncnc3ccc(F)cc23)cc1` [5aa, 6-Fluoro-N-(4-fluorobenzyl)-4-Quinazolinamine], the remaining activity at 10 µM came out at 117% on TTBK2(h) (setting [2]); 91% at Fes(h) (setting [2]); 114% on PDGFRα(D842V)(h) (setting [2]); 88% at LTK(h) (setting [2]); 113% on Syk(h) (setting [2]); 102% at Rsk1(h) (setting [2]). The remaining activity at 10 µM is 85% on ACK1(h) (setting [2]); 88% on CLK3(h) (setting [2]); 79% at mTOR(h) (setting [2]); 101% on CDK4/cyclinD3(h) (setting [2]); 106% at Abl(Y253F)(h) (setting [2]); 99% in [1] (setting [2]). For the same compound, the remaining activity at 10 µM on MAP4K5(h) (setting [2]) turned out to be 92%; at cKit(D816V)(h) (setting [2]) it was 105%; at CK1γ2(h) (setting [2]) it was 84%.

Turning to `Fc1ccc(CCNc2ncnc3ccc(F)cc23)cc1` [5as, 6-Fluoro-N-[2-(4-Fluorophenyl)Ethyl]-4-Quinazolinamine], the remaining activity at 10 µM at TTBK2(h) (setting [3]) amounted to 107%; at Fes(h) (setting [3]), 92%; on PDGFRα(D842V)(h) (setting [3]), 92%; on LTK(h) (setting [3]), 76%; on Syk(h) (setting [3]), 84%; on Rsk1(h) (setting [3]), 110%. In addition, the remaining activity at 10 µM on ACK1(h) (setting [3]) turned out to be 84%; at CLK3(h) (setting [3]) it was 117%; at mTOR(h) (setting [3]) it was 76%; on CDK4/cyclinD3(h) (setting [3]), 97%; on Abl(Y253F)(h) (setting [3]) it was 91%; in assay [1] (setting [3]), 97%. Moreover, the remaining activity at 10 µM at MAP4K5(h) (setting [3]) is 89%; on cKit(D816V)(h) (setting [3]), 111%; at CK1γ2(h) (setting [3]) it was 72%.

`Fc1ccc2ncnc(NCCc3ccc(Cl)cc3)c2c1` [5at, N-[2-(4-Chlorophenyl)Ethyl]-6-Fluoro-4-Quinazolinamine]: the remaining activity at 10 µM stood at 111% on TTBK2(h) (setting [4]); 81% at Fes(h) (setting [4]); 86% at PDGFRα(D842V)(h) (setting [4]); 74% on LTK(h) (setting [4]); 92% at Syk(h) (setting [4]); 103% at Rsk1(h) (setting [4]). The remaining activity at 10 µM at ACK1(h) (setting [4]) stood at 71%; on CLK3(h) (setting [4]), 116%; at mTOR(h) (setting [4]) it was 80%; at CDK4/cyclinD3(h) (setting [4]), 95%; at Abl(Y253F)(h) (setting [4]), 71%; in [1] (setting [4]), 94%. The remaining activity at 10 µM at MAP4K5(h) (setting [4]) was found to be 97%; on cKit(D816V)(h) (setting [4]), 98%; on CK1γ2(h) (setting [4]), 76%.

As to `COc1ccc2ncnc(Nc3cccc(F)c3)c2c1` [5ay, N-(3-Fluorophenyl)-6-Methoxy-4-Quinazolinamine], the remaining activity at 10 µM on TTBK2(h) (setting [5]) was 114%; on Fes(h) (setting [5]), 93%; at PDGFRα(D842V)(h) (setting [5]), 50%; at LTK(h) (setting [5]), 76%; at Syk(h) (setting [5]) it was 110%; on Rsk1(h) (setting [5]), 116%. Moreover, the remaining activity at 10 µM on ACK1(h) (setting [5]) was found to be 56%; at CLK3(h) (setting [5]), 114%; on mTOR(h) (setting [5]), 77%; at CDK4/cyclinD3(h) (setting [5]), 100%; at Abl(Y253F)(h) (setting [5]) it was 66%; in assay [1] (setting [5]) it was 96%. In addition, the values for the remaining activity at 10 µM at MAP4K5(h) (setting [5]), on cKit(D816V)(h) (setting [5]) and at CK1γ2(h) (setting [5]) were 80%, 125% and 62%, respectively.

These data come from PMC7827406, “Structure–Activity Relationship (SAR) Study of Spautin-1 to Entail the Discovery of Novel NEK4 Inhibitors” (International Journal of Molecular Sciences, 2021).
